# Measurements as given in PMC11610669, “A Spectroscopic Study on the Amyloid‐β Interaction with Clicked Peptide‐Porphyrin Conjugates: a Vision Toward the Detection of Aβ Peptides in Aqueous Solution” (Chembiochem, 2024).
# “Also recorded” adds a separate entry of the source. Square brackets hold non-standard residues; d marks the D form. Peptide text beside a SMILES is read from it. Lys(N3) = [N-]=[N+]=NCCCC[C@H](N)C(=O)O
# Key:
# Aβ42 [1] = molecular target: T1, Aβ42 (Homo sapiens, UniProt P05067); experiment: UV-Vis of conjugates with equimolar Aβ42; type: biochemical; conditions: 5 μM conjugate, equimolar Aβ42, 10 mM phosphate buffer pH 7.4, 0, 24, 48 and 120 h
# Procedure: (§1) The UV‐Vis spectra of porphyrin‐peptide conjugates (5 μM) were recorded in the presence of an equimolar ration of Aβ42 monomers at 0, 24, 48 and 120 h (Figure 2S). […] Therefore, the interaction of the peptide‐porphyrin conjugates with Aβ was further studied using CD spectroscopy. The Aβ42 aggregation process was monitored either in the absence or in the presence of an equimolar amount of the conjugated peptides. A series of CD control experiments were preventively carried out to assess the propensity of the porphyrin‐peptide conjugates to adopt a β‐sheet conformation. The corresponding CD curves are shown in the supplementary material (Figure 3S). […] We then evaluated the ability of the porphyrin‐peptide conjugates to affect the Aβ42’s aggregation process. This was accomplished by running a series of CD experiments on the binary systems in the same experimental conditions as the control CD measurements. A 5 μM Aβ42 sample was used as a positive control of the aggregation process (Figure 3, panel a). In this case, the curve profiles indicate that at 0 h, Aβ42 is predominantly in the random coil conformation, as evidenced by the negative ellipticity around 200 nm. […] The typical dichroic profile characterized by a negative ellipticity at λ=222 nm and a positive band at λ=200 is indicative of this event (Figure 3, panel a).
# (§2) Spectra were recorded on a Jasco V‐670 Spectrophotometer at room temperature. All measurements were performed in the 300–650 nm wavelength region, in a 10 mM phosphate buffer solution at pH 7.4 using a 1 cm path length quartz cell. The spectra of all the peptide‐porphyrin conjugates, either in the absence or in the presence of equimolar Aβ42, were acquired at 5 μM. In some cases, the same sample solution was used to run the CD spectra. The final concentrations of Aβ42 and peptide conjugates were 5 μM (1 : 1 molar ratio).
# [2] = CD control: β-sheet propensity of the conjugates alone; type: physicochemical; conditions: 10 mM phosphate buffer pH 7.4, room temperature, up to 120 h
# Procedure: as §1
# Spectra were recorded on a J‐810 spectrometer (Jasco, Japan) under a constant flow of N2 at room temperature. The CD measurements were performed in the wavelength regions (190–260 nm, 195–350 nm and 350–500 nm) using a 1 cm path length quartz cell. All aggregation kinetics were monitored up to 120 hours. The CD spectra were recorded for Aβ42 (5 μM and 20 μM) monomer in the absence or in the presence of porphyrin‐peptide conjugates (5 μM and 20 μM for the 1 : 1 molar ratios). Monomerized samples of Aβ42 (5 μM and 20 μM) were solubilized in 50 μL of NaOH 20 mM (2,5 %) and after were diluted with 1950 μL of 10 mM phosphate buffer at pH 7.4 pure or containing the solubilized conjugates.
# Aβ42 [3] = molecular target: T1, Aβ42; experiment: Grating-Coupled Interferometry (GCI) binding to immobilized Aβ42; conditions: GCI fit quality parameter
# Procedure: The Grating‐Coupled Interferometry (GCI) is a widely used analytical technique for characterizing intermolecular interactions. It allows quantitative measurements of both the affinity and the kinetics of the binding events. This high sensitivity label‐free method was exploited to measure the interactions of Aβ42 with Cu‐Ph‐Pep , Ph‐Pep , and Zn‐Ph‐Pep (Figure 5S). Control experiments with pristine MCPTPyP and the peptide GPGKLVFF ( Pep ) were carried out for comparison. The calculated association and dissociation kinetic constants (kon and koff, respectively) and the thermodynamic binding constant (KD), are summarized in Table 1. The obtained values indicate that all the conjugates show good affinities with Aβ42. It is also clear from Table 1 that the peptide moiety is fundamental for the molecular recognition of the Aβ42 peptide.[48] […] Nevertheless, it is important to emphasize that the interaction with Aβ42 is primarily mediated by the peptide rather than by the porphyrin macrocycle. We next investigated whether these peptide derivatives could be employed as molecular probes for the detection of Aβ42 aggregated species. A new set of CD experiments was then carried out with Aβ42 at 20 μM both in the absence and in the presence of the porphyrin‐peptide conjugates at 1 : 1 molar ratio in the UV (195–350) and Visible (350–500) regions. […] The signal rapidly evolved toward the typical β‐sheet profile (already within 24 h) with a single minimum at 216 nm, an x‐axis intercept at 202 nm and a maximum shift at a wavelength 195 nm.[49] […] For the sake of comparison, the CD spectra of the porphyrin‐peptide conjugates at 20 μM were also recorded in the same experimental conditions, both in the far‐UV and Visible regions (Figure 6S).
# The experiments were performed on a Creoptix WAVE system (Creoptix). Borate buffer (100 mM sodium borate pH 9.0, 1 M NaCl) was used for chip conditioning. Aβ42 peptide (20 μg/ml in Na Acetate pH 4.5) was immobilized on 4PCH WAVE chips (quasiplanar polycarboxylate surface; Creoptix) according to the manufacturer instructions at a final density of 1910±40 pg/mm^2. Single‐cycle sequential injections of dilution series for each Porphyrin‐Peptide conjugates in running buffer (PBS, 0.005 % Tween 20, 1 % DMSO, 0.2 mg/ml BSA) were performed at 25 °C, using a flow rate of 100 μl/min. In details, for the conjugate Cu‐Ph‐Pep , 1 : 2 dilution series starting from 200 μM were injected for 10 s association time, 45 s dissociation time, followed by a dissociation time of 600 s for the last higher concentration injection. Finally, for the conjugates Ph‐Pep and Zn‐Ph‐Pep , 1 : 2 dilution series starting from 50 μM and 100 uM, respectively, were injected for 30 s association time, 45 s dissociation time, followed by a dissociation time of 600 s for the last higher concentration injection. Blank injections were used for double referencing and a DMSO calibration curve for bulk correction. Analysis and correction of the obtained data were performed using the Creoptix WAVE control software (correction applied: X and Y offset; DMSO calibration; double referencing). Mass transport binding models with bulk correction were used to fit all experiments. All the experiments have been performed at least in triplicate.
# Figure 5S. Quantitative binding kinetics of Aβ42 vs a) MCPTPyP; b) Cu-Ph-Pep; c) Ph-Pep; d) Zn-Ph-Pep; and e) Pep measured by GCI. All curves were blank subtracted. Experiments were performed in triplicate. All the quality assessments (i.e., χ2 shown in Table 1 of the main text , parameter errors, and residual plots were acceptable; the sensorgrams had sufficient curvatures an d the kinetic constant k off were within the measurable range) were fulfilled. Descriptive Statistical Analysis was employed to calculate the mean of the obtained values of k on, koff and KD as a measure of central tendency and standard deviations of the former values were computed as a measure of dispersion.
# Figure 6S. […]
# [4] = UV-Vis self-aggregation of the conjugates; type: physicochemical; conditions: UV-Vis 300–650 nm, 5 μM, 10 mM phosphate buffer pH 7.4, room temperature, 0–120 h
# Procedure: We first studied the effects of peptide conjugation on the porphyrin chromophore, by UV‐Vis spectra in the region between 300–650 nm. The spectra were recorded using a solution of 5 μM Porphyrin‐peptide conjugate in 10 mM phosphate buffer pH 7.4. The UV‐Vis profile of the porphyrin precursor MCPTPyP, recorded at the same concentration, is also shown for the sake of comparison (Figure 1).
# (§3) Peptide conjugation influences the spectral features of the porphyrin chromophore as evidenced by the red shift in the absorption maximum in the region of the Soret band region. The Q bands are also affected, particularly in the Cu‐Ph‐Pep and Zn‐Ph‐Pep compounds (Figure 1). In this case the presence of a metal ion within the porphyrin's core might contribute to the observed spectral profile of these compounds. […] The fluorescence spectra of the investigated systems were also acquired in view of the interaction of the studied conjugates with cells (see below biological section).[41] The fluorescence spectra were recorded with the photoexcitation at 425±5 nm, in 10 mM phosphate buffer pH 7.4 and 5 μM concentration. The emission spectrum of the porphyrin precursor MCPTPyP ( Ph ) was also obtained for the sake of comparison.
# as §2
# [5] = Porphyrin fluorescence in buffer; type: physicochemical; conditions: 5 μM, 10 mM phosphate buffer pH 7.4, excitation 425 nm; vs pristine MCPTPyP
# From the text: as §3
# Spectra were recorded on a Horiba Fluoro‐max‐4 spectrofluorometer from 440–800 nm in 1 nm steps, at an excitation wavelength λexc=425 nm, at room temperature. The final fluorescence spectra represent averages of at least three measurements. Bandwidths of 5 nm for both excitation and emission were used. The sample of the compound used to record absorption spectra were the same as those for the CD spectra.
# full-length Aβ = conditions: ref [44], [45]; cited from earlier work
# From the text: In the present work we employed UV‐Vis, CD spectroscopy and Bis‐Ans fluorescence to explore the molecular processes underlying the interactions occurring between Aβ and the porphyrin‐peptide conjugates.
# T1 sequence (P05067 672-713 limits assumed): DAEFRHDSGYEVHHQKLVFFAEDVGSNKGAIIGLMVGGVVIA
Molecule,UV-Vis spectral change in presence of Aβ42 (Aβ42 [1]),propensity to adopt β-sheet conformation (conjugate alone) [2],"χ^2 (average of the squared residuals, fitting confidence) (Aβ42 [3])",self-aggregation [4],fluorescence emission intensity [5],recognition of full-length Aβ (full-length Aβ)
COC(=O)[C@H](Cc1cn(CCCC[C@H](NC(=O)CNC(C)=O)C(=O)N2CCC[C@H]2C(=O)NCC(=O)N[C@@H](CCCCN)C(=O)N[C@@H](CC(C)C)C(=O)N[C@H](C(=O)N[C@@H](Cc2ccccc2)C(=O)N[C@@H](Cc2ccccc2)C(N)=O)C(C)C)nn1)NC(=O)c1ccc(-c2c3nc(c(-c4cc[n+](C)cc4)c4ccc([nH]4)c(-c4cc[n+](C)cc4)c4nc(c(-c5cc[n+](C)cc5)c5ccc2[nH]5)C=C4)C=C3)cc1 [Ph‐Pep],minor variations in the spectral profiles,can fairly adopt β‐sheet conformation over time,0.71±0.04,absence of significant self‐aggregation phenomena,somewhat decreased,–
COC(=O)[C@H](Cc1cn(CCCC[C@H](NC(=O)CNC(C)=O)C(=O)N2CCC[C@H]2C(=O)NCC(=O)N[C@@H](CCCCN)C(=O)N[C@@H](CC(C)C)C(=O)N[C@H](C(=O)N[C@@H](Cc2ccccc2)C(=O)N[C@@H](Cc2ccccc2)C(N)=O)C(C)C)nn1)NC(=O)c1ccc(-c2c3nc(c(-c4cc[n+](C)cc4)c4ccc([nH]4)c(-c4cc[n+](C)cc4)c4nc(c(-c5cc[n+](C)cc5)c5ccc2[nH]5)C=C4)C=C3)cc1 [Cu‐Ph‐Pep],minor variations in the spectral profiles; also recorded: observable absorbance diminution,can fairly adopt β‐sheet conformation over time,0.76±0.07,absence of significant self‐aggregation phenomena,not fluorescent,–
KLVFF [well-known hydrophobic core Aβ16–20 (KLVFF)],–,–,–,–,–,can recognize and co‐assemble with full‐length Aβ
CC(=O)NCC(=O)N[C@@H](CCCCN=[N+]=[N-])C(=O)N1CCC[C@H]1C(=O)NCC(=O)N[C@@H](CCCCN)C(=O)N[C@@H](CC(C)C)C(=O)N[C@H](C(=O)N[C@@H](Cc1ccccc1)C(=O)N[C@@H](Cc1ccccc1)C(N)=O)C(C)C [Pep] (Ac-G[Lys(N3)]PGKLVFF-NH2),–,–,0.79±0.08,–,–,–
